We go through 17 compounds from PubChem BioAssay (NCI).

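Briefly, cells in 96-well plates were exposed to five compound concentrations for 48 h, and endpoints were estimated by linear interpolation. The concentration for 50% growth inhibition is given as GI50. TGI: concentration producing complete growth inhibition.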

Common to all, as to assay: growth of human tumour cells (NCI), 48 h
For test [1], the system named is HCT-116 colon.
Test [2] has as its system SNB-19 CNS.
In test [3] the test system is M14 melanoma.
The subject of test [4] is SK-MEL-28 melanoma.
In test [5] the test system is MDA-MB-231 breast.
The subject of test [6] is U251 CNS.
Test [7] concerns SK-MEL-5 melanoma.
Test [8] relates to OVCAR-8 ovarian.
Test [9] concerns SNB-75 CNS.
In test [10] the test system is OVCAR-3 ovarian.

With `N#CCc1c(F)c(F)c(F)c(F)c1F`, the TGI in test [1], in test [2], in test [3], in test [4], in test [5] and in test [6] was > 100 µM each time. In addition, the TGI in [7] and in [8] was > 100 µM each time.
For `Nc1nc(=O)n(C2CC(O)C(CO)O2)cc1F` (configuration not stated), the TGI in [9], in test [1], in test [3], in test [4], in test [10] and in test [5] was > 100 µM throughout. In addition, the TGI in test [6], in test [7] and in test [8] was > 100 µM in each case. Moreover, the GI50 in test [1] is 1490 nM; in test [3], 222 nM; in test [5], 10.7 µM; in test [6], < 50.6 nM; in [7], 228 nM; in [8] it was 59.4 nM.
Take `Cc1cc(F)c(C(=O)Nc2cccc(-c3nncn3C(C)C)n2)cc1-n1cnc(C2CC2)c1`: the GI50 in [9] was 10.3 µM; in test [1], 8250 nM; in [2] it was 25.5 µM; in test [4], 20900 nM; in test [10], 12.5 µM; in test [5], 18.1 µM. The results for the GI50 in test [6], in [7] and in test [8] were 17100 nM, 11300 nM and 18300 nM, respectively. The TGI in test [9] was 64.3 µM; in [1], > 100 µM; in test [2] it was > 100 µM; in test [4], 64.7 µM; in test [10], > 100 µM; in test [5] it was 91.5 µM. Moreover, the TGI in test [6] is > 100 µM; in test [7], 23.6 µM; in test [8], 68 µM.
In the case of `OCC#CCOCC#Cc1ccccc1C#CCOCC#CCO`, the GI50 in test [1] is 16600 nM; in test [3], 20200 nM; in test [10], 38.1 µM; in test [5], 30.2 µM; in test [7], 39800 nM; in [8] it was 43800 nM. The TGI in [1] is 44 µM; in [3] it was 49.9 µM; in test [10], > 100 µM; in [5], 83.4 µM; in test [7], > 100 µM; in test [8], > 100 µM.
In the case of `Clc1ccc(-c2cc(-c3ccccc3)nc(N3CCN(CCCNc4ccnc5cc(Cl)ccc45)CC3)n2)cc1`, the GI50 is 1.49 µM in test [9]; 934 nM in [1]; 1870 nM in test [3]; 1720 nM in test [4]; 1.55 µM in test [10]; 1.67 µM in [5]. Further, the GI50 was 1290 nM in [6], 1670 nM in [7] and 1150 nM in test [8]. Further, the TGI was 2.85 µM in test [9]; 2.22 µM in test [1]; 3.53 µM in test [3]; 3.14 µM in test [4]; 2.98 µM in test [10]; 3.19 µM in test [5]. Moreover, the TGI in test [6] is 2.63 µM; in test [7], 3.06 µM; in test [8] it was 2.93 µM.
`CC12Nc3ccccc3C1=C(c1ccccc1)CC1C(=O)OC(=O)C12` (configuration not stated): the TGI in test [9] is 73.7 µM; in test [1], > 100 µM; in [2], > 100 µM; in [3], > 100 µM; in test [4], > 100 µM; in test [10] it was > 100 µM. Moreover, the TGI in test [6], in test [7] and in test [8] was > 100 µM each time.
`O=C1/C(=C/c2cccnc2)SC(=S)N1Cc1ccco1`: the TGI was > 24.9 µM in test [1]; > 100 µM in test [2]; > 100 µM in test [3]; > 100 µM in test [4]; 10.4 µM in test [10]; > 51.1 µM in [5]. The TGI in [6] was 30.6 µM; in test [7], > 51 µM; in test [8] it was > 48.5 µM.
On to `N#CCCN(CCC#N)c1ccc(/C=C(/NC(=O)c2cc([N+](=O)[O-])ccc2Cl)C(=O)N=[N+]=[N-])cc1`, for which the TGI in test [9], in test [1], in [2], in [3], in test [4] and in test [10] was > 100 µM in each case. The TGI in test [6], in [7] and in test [8] was > 100 µM in each case.
Consider `CC(Oc1cc2oc(=O)cc(-c3ccccc3)c2cc1Cl)C(=O)O` (configuration not stated), for which the TGI in test [9], in test [1], in test [2], in test [3], in [4] and in [10] was > 100 µM throughout. In addition, the TGI in test [6], in test [7] and in test [8] was > 100 µM throughout.
As for `CN1CCN(CCCOc2cccc3nc(Nc4cc(Cl)cc(Cl)c4)ccc23)CC1`, the GI50 in test [1] was 1940 nM; in test [2] it was 1.89 µM; in [3], 1730 nM; in [4], 1670 nM; in test [10], 1.68 µM; in test [5], 1.57 µM. Also, the GI50 in [6] was 1720 nM; in test [7], 1930 nM; in [8], 1940 nM. For the same compound, the TGI in test [1] is 3.47 µM; in test [2], 3.48 µM; in [3], 3.28 µM; in test [4], 3.13 µM; in test [10], 3.18 µM; in test [5], 3.12 µM. The TGI turned out to be 3.1 µM in test [6], 3.75 µM in [7] and 3.48 µM in test [8].
For the compound `O/N=C1/CCC/C1=C\c1ccccc1`, the TGI in test [9] was 44.8 µM; in test [1], > 100 µM; in test [2], > 100 µM; in test [3] it was > 100 µM; in test [4] it was > 100 µM; in [10], > 100 µM. The TGI in [6], in test [7] and in [8] was > 100 µM throughout.
Take `CCCCC(C(=O)C(=O)Nc1ccc(C)cc1C)C(=O)C(C)C` (configuration not stated): the TGI in test [9], in [1], in [2], in [3], in test [4] and in test [10] was > 100 µM each time. Moreover, the TGI in test [6], in test [7] and in test [8] was > 100 µM in each case.
As for `C/C(NNC(=O)c1ccccc1O)=C1\C=Nc2ccccc2S1`, the TGI is 43.8 µM in test [9]; > 100 µM in test [1]; > 100 µM in test [2]; 31.1 µM in test [3]; > 100 µM in [4]; > 100 µM in test [10]. For the same compound, the TGI in test [6], in test [7] and in test [8] was > 100 µM throughout.
In the case of `CCOC(=O)/C(=C/CC/C(C)=C/CC/C(C)=C/CCc1ccoc1)CC(=O)N1CCCCC1`, the GI50 in test [9] was 4.1 µM; in test [1], 2660 nM; in test [2] it was 4.05 µM; in test [3], 2950 nM; in [4] it was 3200 nM; in [10], 3.44 µM. The values for the GI50 in [5], in test [7] and in test [8] were 1.96 µM, 1660 nM and 3970 nM, respectively. In addition, the TGI in [9] worked out at 35.3 µM; in test [1], 10.2 µM; in test [2], 41.3 µM; in test [3], 10.2 µM; in [4], 12.4 µM; in [10] it was 12.3 µM. The TGI in [5] is 4.17 µM; in test [7] it was 3.09 µM; in [8], 40.2 µM.
Consider `O=C(CCC(=O)Nc1ccccc1C(F)(F)F)N/N=C1\C(=N\NC(=O)CCC(=O)Nc2ccccc2C(F)(F)F)C(c2ccc3c(c2)OCO3)Oc2ccccc21` (configuration not stated), for which the TGI is 43.2 µM in [9]; > 100 µM in test [1]; > 100 µM in test [2]; > 100 µM in test [3]; > 100 µM in [4]; > 100 µM in test [10]. The TGI in test [6] is 68.5 µM; in test [7], > 100 µM; in [8], > 100 µM.
On to `CC(C)N(C(=O)C12C3C4C1C1C2C3C41C(=O)C(C)(C)C)C(C)C` (configuration not stated), for which the TGI in test [9], in test [1], in test [2], in test [3], in [4] and in test [10] was > 100 µM throughout. The TGI in test [6], in test [7] and in [8] was > 100 µM throughout.
Regarding `C/C(=N\Nc1ccccc1)c1sc(-c2nc(C)c(/C(C)=N/Nc3ccccc3)s2)nc1C`, the TGI in test [9] was > 77.1 µM; in test [1], > 100 µM; in test [2], > 100 µM; in [3], 25 µM; in test [4], > 85.8 µM; in [10], 59.9 µM. Besides, the TGI in test [6] is > 100 µM; in [7] it was > 47.6 µM; in test [8] it was > 100 µM.
